Experimental data published in patent US8232299B2, “Phthalimide derivatives that influence cellular vesicular systems, pharmaceutical compositions, and use thereof” (Avidin Kft., priority 2007, dated 2012).

Assays:
[1] = system: RVH human melanoma cell line; experiment: cytotoxic effect on melanoma cell line, MTS assay, 48 hours; format: cell-based; settings: 48 hours treatment; FIG. 4
Procedure: RVH human melanoma cell line was cultured in Minimum Essential Medium Eagle (Sigma, St. Louis, Mo., USA), Na-piruvate, Glutamine, Non-essential amino acids, penicillin (50 IU/ml)-streptomycin ([…]), 10% fetal bovine serum at 37° C., in 5% CO2. Cells were trypsinized with trypsin/EDTA (Sigma-Aldrich, St. Louis, Mo.) on every second day and were passed into 60 or 100 mm plates. When the culture reached the required cell number (approx. 10^6) for the planned experiment 50.00 cell/well was plated into 24 well plates (Costar® 24 Well TC-Treated Microplates) and left overnight to adhere to the bottom of the well. Addition of the substance was performed the following way: next day the culture media was drawn from the adhered cells and media comprising compounds of the present invention in appropriate concentration and well mixed therein was pipetted (2 ml/well) onto the cells. The substance to be examined was diluted in 100% DMSO, this way an amount of DMSO corresponding to the highest concentration of the substance in a given assay were measured in the media of the control wells. After 48 hours of treatment live cells were detected by CellTiter® 96 Aqueous Non-radioactive Cell Proliferation Assay (Promega, Madison, Wis., USA) to determine the number of live cells in the treated and in the control samples.
MTS is converted to formazane in the living cells, which product is dissolved in the media, and its quantity/absorbance can be measured at 490 nm. […] Then, for the determination of the ratio of live cells 20 μl MTS and 1 μl PMS are added to 100 μl media. The enzyme reaction occurs at incubation at 37° C., 5% CO2 for 1 to 4 hours. Formazane produced by the cells is read on ELISA plate reader, from which the number of living cells can be obtained indirectly. Since the inventors performed the experiments in 24 well plates with 50.000 cell/well, the protocol had to be modified. After treatment of the cells for an appropriate time (type of compound, different concentrations), the incubation media (2 ml) containing the examined substance was removed, then 400 μl media containing reagents in the same concentration as given above (333.3 μl media, 66.6 μl MTS, and 3.3 μl PMS per well) was pipetted to the cells. To be able to use ELISA plate reader (Multiskan R C, Thermo Labsystems, Franklin, Mass., USA) 400 μl sample from each single well of the 24 well plate was pipetted into four wells of a 96 well plate (Micromethod plates 96 wells flat form) in 100 μl aliquots. That also helped to eliminate possible errors due to inconsistent pipetting. On each 24 well plate 4 wells were control samples. From these 3 times 100 μl was pipetted onto the 96 well plates, so, altogether 12 controls were provided on each 96 well plate. The remaining 4 wells were for background measurements with 100 μl media containing MTS and PMS as described above.

[2] = system: HepG2 (human hepatocellular carcinoma); experiment: cytotoxic effect on hepatocellular carcinoma cell line, MTS test, 24 hours; format: cell-based; settings: 24 hours incubation, already at 20 and 50 μM concentrations
Procedure: (§1) In these experiments HepG2 (human hepatocellular carcinoma) and MCF7 (Human breast adenocarcinoma) cells were used. They were cultured in the following media: For HepG2 Dulbecco's Modified Eagle Medium (D-MEM) (high glucose) (Gibco BRL, Carlsbad, Calif., USA), penicillin (50 IU/ml)-streptomycin ([…]), 10% fetal bovine serum; for MCF7 (Human breast adenocarcinoma) 1:1 mixture of Dulbecco's Modified Eagle Medium (D-MEM) (high glucose) (Gibco BRL, Carlsbad, Calif., USA) and Nutrient Mixture F-12 Ham (Sigma, St. Louis, Mo., USA), penicillin (50 IU/ml)-streptomycin ([…]), 10% fetal bovine serum. Experiments were performed as described in Example 9. with the difference that the incubation time was 24 hours in this case. After the incubation period MTS test (3-(4,5-dimethylthiazol-2-yl)-5-(3-carboxymethoxyphenyl)-2-(4-sulfophenyl)-2H-tetrazolium) (Promega, Madison, Wis., USA) was performed as described above.

[3] = system: TNFα; experiment: early (preformed) TNFα secretion of RAW.264.7 macrophages, ELISA; format: cell-based, mice
Source text: Matured macrophages produce tumor necrosis factor (TNF-alpha or TNFα) in response to bacterial lipopolysaccharide (E. coli LPS, Sigma) stimulation. TNFα production is induced by […] to the toll-like receptor 4 (TLR-4), the lipopolysaccharide binding protein (LBP), and the CD14 receptor. Secretion of the TNFα is biphasic. For one hour after the stimulation macrophages respond with release of preformed TNFα. Meanwhile, the NF-kappaB signaling pathway turns on the TNFα gene transcription reaching maximum after approximately 8 hours.
(§2) In our experiments we investigated the early TNFα secretion of RAW.264.7 matured mice macrophages. This cell line stores large amount of preformed TNFα. […] Culture supernatant was collected and TNFα content was determined by R&D Duoset ELISA kit (detection limit<62.5 pg/ml). […] So the reduced TNFα level was due to inhibition of the release of preformed TNFα and not due to dying of the cells.
In this example two controls (diluent only—ethanol incubated) and four treated samples were analyzed.

[4] = system: pseudorabies Bartha type viruses; format: cell-based, pseudorabies virus; settings: 100 μM
[5] = system: MCF7 (Human breast adenocarcinoma); experiment: cytotoxic effect on breast carcinoma cell line, MTS test, 24 hours; format: cell-based; settings: 24 hours incubation, in the concentration range tested
Procedure: as §1

[6] = system: RAW.264.7 matured mice macrophages; experiment: MTS test of vitality / metabolic activity of the macrophages; format: cell-based
Procedure: as §2
Effects of compound 3a and compound 3b on TNFα secretion and on NF-kappaB activation could have been based on cytotoxicity as well. To exclude that, we determined the metabolic activity of the cells, which is proportional to the cell number, by MTS test 8 hours after the treatment.

[7] = system: human melanoma (HT168M1); experiment: subcutaneous melanoma tumor model; format: in vivo, CB17/scid mice; settings: 40 mg/kg per os, once a day five days per week for 3 weeks from day 7; FIG. 8
Procedure: Slightly anesthetized (diethyl ether narcosis) adult male CB17/scid mice born with immunodeficiency were subcutaneously (s.c.) implanted with 8×10^5 cells from in vitro human melanoma (HT168M1) cultures. After tumor cell inoculation animals were randomly assigned into three groups and their ears were marked. From the 7th day after the tumor cell inoculation mice were treated once a day five days per week for 3 weeks with compound 2 (40 mg/kg), or with compound 3b (40 mg/kg) per os by gavage. Control animals were treated with appropriate dilution of the carrier (DMSO) in a similar manner with similar frequency. Body weight changes were monitored once a week for each animal. When subcutaneous tumor reached palpable size its dimensions were also detected with caliper. Tumor volume was estimated by the formula π/6×a×b^2, where “a” is the longer and “b” is the shorter diameter. 30 days after implantation animals were sacrificed by bleeding in Nembutal (75 mg/kg) anesthesia. Evaluation was based on the mass of the primary tumor.
In this experiment the effect of compound 2 and compound 3b was tested in oral administration at the same dose (40 mg/kg).

In the case of `CCNc1c(F)c(F)c2c(c1F)C(=O)N(c1c(C(C)C)cccc1C(C)C)C2=O` [Compound 3b, 2-(2,6-diisopropylphenyl)-5-(ethylamino)-4,6,7-trifluoroisoindole-1,3-dione], the “inhibition of RVH melanoma cells (cytotoxic effect)” value [1] is reported as “strongest inhibition”, the “effect on HepG2 cells” value [2] is reported as “strong effect” and the “LPS stimulated TNFα release of the macrophages” value ([3]; 100 ng/ml LPS, FIG. 2b) is reported as “reduces the induced TNFα release”. For the same molecule, the “basal TNFα release of the macrophages” value ([3]; without LPS induction, FIG. 2a) was “able to reduce the basal TNFα release”, the “entry of the viruses into the cell” value [4] was “does not inhibit the entry of the viruses into the cell” and the “release and spreading of the viruses in vitro” value [4] was “does inhibit their release and thus their spreading in vitro”. The “plaque size (viral positive cells)” value ([4]; 24 hours) was 2-6 cells/plaque, the “effect on MCF7 cells” value [5] was “weak effect” and the “vitality of the cells (MTS test)” value ([6]; 3 hours after the stimulation with LPS) was “no cell death was detected”. For the same molecule, the “metabolic activity of the cells (MTS test)” value ([6]; 8 hours after the treatment) was “not found to be toxic” and the “effect on growth of the subcutaneous primary tumor (tumor mass)” value [7] was “significantly (p=0.05) reduced tumor size”.
